Experiment [1] has as its system S. aureus Smith. In words: In vitro antibacterial activity (MIC), S. aureus Smith. As to conditions: Staphylococcus aureus, 18 h.
Experiment [2] deals with E. coli 9637. The experiment is described as follows: In vitro antibacterial activity (MIC), E. coli 9637. As to conditions: Escherichia coli, 9637, 18 h.

Converted amounts (≈) assume the structure as drawn.

What is called MIC is the lowest concentration that inhibits growth of the organism. For `N#Cc1ccc(Cn2ccc3c4c(N)nc(N)nc4ccc32)cc1` [Example 16, 7-[(4-cyanophenyl)methyl]-7H-pyrrolo[3,2-f]-quinazoline-1,3-diamine], the MIC in experiment [1] and in experiment [2] was 0.244 µg/mL (≈ 0.776 µM) throughout.

Source of the values: US4118561A, “7-(Substituted)-7H-pyrrolo[3,2-f]quinazoline-1,3-diamines” (priority 1977, dated 1978).
